{"source": "patent US20210393522A1", "about": "“COMPOSITIONS FOR SOLUBILIZING WATER-INSOLUBLE ACTIVE INGREDIENTS” (priority 2020, published 2021)", "origin": "cited, not measured here", "key": {"[1]": {"conditions": "oil-based delivery systems; humans; Agurell 1981"}}, "data": [{"smiles": "C=C(C)[C@@H]1CCC(C)=C[C@H]1c1c(O)cc(CCCCC)cc1O", "note": "[CBD, cannabidiol]", "values": [{"measurement": "Share of total CBD absorbed", "setting": "[1]", "result": 4, "unit": "%"}]}, {"smiles": "CC(C)(Sc1cc(C(C)(C)C)c(O)c(C(C)(C)C)c1)Sc1cc(C(C)(C)C)c(O)c(C(C)(C)C)c1", "note": "[Probucol, 4,4′-[Propane-2,2-diylbis(thio)]bis(2,6-di-tert-butylphenol)]", "values": [{"measurement": "Solubility in water", "result": 5, "unit": "nanograms per ml"}]}]}
